Columns and labels:
[1] = molecular target: T1, TDO2 in A172 cancer cells (Homo sapiens, UniProt P48775); assay: TDO2 Cellular Assay (kynurenine production in A172 cancer cells); type: cell-based; conditions: L-Trp 1 mM, 24 hours incubation, kynurenine at 490 nm
T1 construct: endogenous in cells; host or cells: A172 cancer cells
Method in brief: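 A172 cells seeded overnight, then given 1 mM L-Trp and test compound (0–25 μM, 0.25% DMSO) for 24 h at 37 °C. Supernatant treated with TCA at 50 °C to convert N-formylkynurenine, kynurenine detected with p-dimethylaminobenzaldehyde at 490 nm; IC50 by non-linear regression of inhibition versus DMSO control.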

[2] = molecular target: T2, IDO1 in Hela cancer cells (Homo sapiens, UniProt P14902); assay: IDO1 Cellular Assay (kynurenine production in IFN-γ stimulated Hela cancer cells); type: cell-based; conditions: human IFN-γ 50 ng/mL, 48 hours incubation, kynurenine at 490 nm
T2 construct: endogenous in cells; host or cells: Hela cancer cells stimulated with human IFN-γ
T2 sequence (P14902 whole entry): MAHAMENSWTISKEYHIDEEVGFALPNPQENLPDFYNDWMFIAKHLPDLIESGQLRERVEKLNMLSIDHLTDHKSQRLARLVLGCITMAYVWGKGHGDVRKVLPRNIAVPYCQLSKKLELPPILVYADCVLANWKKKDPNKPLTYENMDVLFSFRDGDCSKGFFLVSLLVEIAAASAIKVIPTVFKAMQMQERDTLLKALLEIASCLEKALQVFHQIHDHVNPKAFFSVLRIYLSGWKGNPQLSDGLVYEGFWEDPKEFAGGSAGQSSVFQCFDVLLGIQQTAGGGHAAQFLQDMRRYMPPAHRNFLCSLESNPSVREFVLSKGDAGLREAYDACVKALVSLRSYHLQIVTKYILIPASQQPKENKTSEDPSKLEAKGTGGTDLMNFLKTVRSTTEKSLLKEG
Method: Hela cancer cells (5×10^3 per well) with 85 μL DMEM medium containing 10% FBS were seeded in a 96-well plate and incubated at 95% humidity and 5% CO2 at 37° C. for 24 hours. human IFN-γ (10 μL, 50 ng/mL final concentration) and 5 μL serial dilutions of the test compounds were added into each well. The test compounds were dissolved in DMSO, and successively diluted with pH7.5 buffer (with final DMSO concentration of 0.25%) resulting in final concentrations of the test compounds ranging from 0 to 25 μM (0, 2.5, 7.5, 25, 75, 250, 750, 2500, 7500, & 25000 nM). After 48 hours of incubation, 70 uL of the supernatant per well was transferred to a new 96 well plate. Trichloroacetic acid (6.1 N, 8 μL) was mixed into each well and incubated at 50° C. for 30 min to hydrolyze N-formylkynurenine produced by IDO to kynurenine. The reaction mixture was then centrifuged for 10 min at 2500 RPM to remove sediments. 50 μL of the supernatant per well was transferred to another 96 well plate and mixed with 50 uL of 2% (w/v) p-dimethylaminobenzaldehyde in acetic acid. The yellow color derived from kynurenine was measured at 490 nm using a microplate reader. Percent inhibition of the test compounds was determined by measuring the decrease in kynurenine as compared to the control of DMSO vehicle, which was calculated by formula of (WC-WT)/WC, where WC is the mean absorbance of the control well minus blank well; WT is the mean absorbance of the test well minus the blank well. Data was analyzed by GraphPad Prism 5 and the IC50 values were obtained by non-linear regression.
The IC50 values of for Compounds disclosed are listed in Table 2, A′: ≤0.5 μM; B′: >0.5 μM and ≤1 μM; C′: >1.0 μM and ≤5 uM; and D′: >5 μM.

T1 sequence (P48775 whole entry): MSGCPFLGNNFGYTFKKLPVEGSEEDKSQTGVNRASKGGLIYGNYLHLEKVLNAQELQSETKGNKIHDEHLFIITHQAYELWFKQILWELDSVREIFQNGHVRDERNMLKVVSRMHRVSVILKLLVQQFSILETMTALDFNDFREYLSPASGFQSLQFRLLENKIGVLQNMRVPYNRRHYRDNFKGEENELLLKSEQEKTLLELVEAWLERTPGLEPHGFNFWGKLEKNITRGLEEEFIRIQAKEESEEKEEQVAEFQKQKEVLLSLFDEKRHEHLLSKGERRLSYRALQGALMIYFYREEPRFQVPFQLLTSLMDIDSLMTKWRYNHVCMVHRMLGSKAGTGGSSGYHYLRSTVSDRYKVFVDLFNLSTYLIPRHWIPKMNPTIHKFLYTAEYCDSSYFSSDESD

Structure (SMILES)	IC50 [1]	IC50 [2]
O=C(N[C@H]1[C@@H]2C[C@@](O)(c3cc(Cl)cc4[nH]ncc34)C[C@@H]21)c1ccc(F)c(OC(F)(F)F)c1 [Example 180, N-((1R,3r,5S,6r)-3-(6-chloro-1H-indazol-4-yl)-3-hydroxybicyclo[3.1.0]hexan-6-yl)-4-fluoro-3-(trifluoromethoxy)benzamide]	≤ 0.5 µM	≤ 0.5 µM
N#CCC(=O)N[C@H]1[C@@H]2C[C@@](O)(c3cc(Cl)cc4[nH]ncc34)C[C@@H]21 [Example 137, N-((1R,3r,5S,6r)-3-(6-chloro-1H-indazol-4-yl)-3-hydroxybicyclo[3.1.0]hexan-6-yl)-2-cyanoacetamide]	≤ 0.5 µM	1 to 5 µM
O[C@@H]1C[C@@H]2C[C@@](O)(c3cc(Cl)cc4cn[nH]c34)C[C@@H]2C1 [Example 106, (2r,3aR,5s,6aS)-2-(5-chloro-1H-indazol-7-yl)octahydropentalene-2,5-diol]	0.5 to 1 µM	> 5 µM
CNS(=O)(=O)N[C@H]1[C@@H]2C[C@@](O)(c3cc(Cl)cc4[nH]ncc34)C[C@@H]21 [Example 9, N′-methyl-N-((1R,3r,5S,6r)-3-(6-chloro-1H-indazol-4-yl)-3-hydroxybicyclo[3.1.0]hexan-6-yl)sulfuric diamide]	≤ 0.5 µM	≤ 0.5 µM
OC1(c2cc(Cl)cc3[nH]ncc23)CC1 [Example 11, 1-(6-chloro-1H-indazol-4-yl)cyclopropanol]	≤ 0.5 µM	> 5 µM
O=C(N[C@H]1[C@@H]2C[C@@](O)(c3cc(Cl)cc4[nH]ncc34)C[C@@H]21)c1cnoc1 [Example 158, N-((1R,3r,5S,6r)-3-(6-chloro-1H-indazol-4-yl)-3-hydroxybicyclo[3.1.0]hexan-6-yl)isoxazole-4-carboxamide]	1 to 5 µM	> 5 µM
CS(=O)(=O)c1cccc(C(=O)N[C@H]2[C@@H]3C[C@@](O)(c4cc(Cl)cc5[nH]ncc45)C[C@@H]32)c1 [Example 153, N-((1R,3r,5S,6r)-3-(6-chloro-1H-indazol-4-yl)-3-hydroxybicyclo[3.1.0]hexan-6-yl)-3-(methylsulfonyl)benzamide]	≤ 0.5 µM	1 to 5 µM
O=S(=O)(C1CC1)N1C[C@@H]2C[C@@](O)(c3cc(Cl)cc4cn[nH]c34)C[C@@H]2C1 [Example 100, (3aR,5r,6aS)-5-(5-chloro-1H-indazol-7-yl)-2-(cyclopropylsulfonyl)octahydrocyclopenta[c]pyrrol-5-ol]	1 to 5 µM	> 5 µM
CNS(=O)(=O)N1C[C@@H]2C[C@@](O)(c3cc(Cl)cc4[nH]ncc34)C[C@@H]2C1 [Example 87, (3aR,5r,6aS)-5-(6-chloro-1H-indazol-4-yl)-5-hydroxy-N-methylhexahydrocyclopenta[c]pyrrole-2(1H)-sulfonamide]	≤ 0.5 µM	1 to 5 µM
CS(=O)(=O)N1C[C@@H]2C[C@@](O)(c3cc(Cl)cn4cncc34)C[C@@H]2C1 [Example 52, (3aR,5r,6aS)-5-(6-chloroimidazo[1,5-a]pyridin-8-yl)-2-(methylsulfonyl)octahydrocyclopenta[c]pyrrol-5-ol]	≤ 0.5 µM	1 to 5 µM
O=C(Nc1ccc(Cl)cc1)N1C[C@@H]2C[C@@](O)(c3cc(Cl)cc4[nH]ncc34)C[C@@H]2C1 [Example 165, (3aR,5r,6aS)-5-(6-chloro-1H-indazol-4-yl)-N-(4-chlorophenyl)-5-hydroxyhexahydrocyclopenta[c]pyrrole-2(1H)-carboxamide]	≤ 0.5 µM	1 to 5 µM
CC(=O)N1C[C@H]2CC(C(O)c3cc(Cl)cc4cn[nH]c34)C[C@H]2C1 (stereo partly drawn) [Example 112, 1-((3aR,6aS)-5-((5-chloro-1H-indazol-7-yl)(hydroxy)methyl)hexahydrocyclopenta[c]pyrrol-2(1H)-yl)ethanone]	> 5 µM	0.5 to 1 µM
O=C(Nc1ccc(F)cc1)N[C@H]1[C@@H]2C[C@@](O)(c3cc(Cl)cc4[nH]ncc34)C[C@@H]21 [Example 147, 1-((1R,3r,5S,6r)-3-(6-chloro-1H-indazol-4-yl)-3-hydroxybicyclo[3.1.0]hexan-6-yl)-3-(4-fluorophenyl)urea]	≤ 0.5 µM	1 to 5 µM
O=C(N[C@H]1[C@@H]2C[C@@](O)(c3cc(Cl)cc4[nH]ncc34)C[C@@H]21)c1cncc(Cl)c1 [Example 179, 5-chloro-N-((1R,3r,5S,6r)-3-(6-chloro-1H-indazol-4-yl)-3-hydroxybicyclo[3.1.0]hexan-6-yl)nicotinamide]	≤ 0.5 µM	≤ 0.5 µM
CC(=O)N1C[C@@H]2C[C@@](O)(c3c(Cl)ccc4cncn34)C[C@@H]2C1 [Example 7, 1-((3aR,5r,6aS)-5-(6-chloroimidazo[1,5-a]pyridin-5-yl)-5-hydroxyhexahydrocyclopenta[c]pyrrol-2(1H)-yl)ethanone]	> 5 µM	> 5 µM
CS(=O)(=O)N1C[C@@H]2C[C@@](O)(c3c(Cl)ccc4cncn34)C[C@@H]2C1 [Example 53, (3aR,5r,6aS)-5-(6-chloroimidazo[1,5-a]pyridin-5-yl)-2-(methylsulfonyl)octahydrocyclopenta[c]pyrrol-5-ol]	1 to 5 µM	> 5 µM
O=C(N[C@H]1[C@@H]2C[C@@](O)(c3cc(Cl)cc4[nH]ncc34)C[C@@H]21)c1cncc(C(F)(F)F)c1 [Example 182, N-((1R,3r,5S,6r)-3-(6-chloro-1H-indazol-4-yl)-3-hydroxybicyclo[3.1.0]hexan-6-yl)-5-(trifluoromethyl)nicotinamide]	≤ 0.5 µM	≤ 0.5 µM
O=C(N[C@H]1[C@@H]2C[C@@](O)(c3cc(Cl)cc4[nH]ncc34)C[C@@H]21)c1ccccc1 [Example 93, N-((1R,3r,5S,6r)-3-(6-chloro-1H-indazol-4-yl)-3-hydroxybicyclo[3.1.0]hexan-6-yl)benzamide]	≤ 0.5 µM	0.5 to 1 µM
O=C(N[C@H]1C[C@@H]2C[C@@](O)(c3cc(Cl)cc4[nH]ncc34)C[C@@H]2C1)c1cccc(Cl)c1 [Example 166, 3-chloro-N-((2r,3aR,5r,6aS)-5-(6-chloro-1H-indazol-4-yl)-5-hydroxyoctahydropentalen-2-yl)benzamide]	≤ 0.5 µM	0.5 to 1 µM
N#Cc1cncc(C(=O)N[C@H]2[C@@H]3C[C@@](O)(c4cc(Cl)cc5[nH]ncc45)C[C@@H]32)c1 [Example 181, N-((1R,3r,5S,6r)-3-(6-chloro-1H-indazol-4-yl)-3-hydroxybicyclo[3.1.0]hexan-6-yl)-5-cyanonicotinamide]	≤ 0.5 µM	≤ 0.5 µM
O=C(N[C@H]1[C@@H]2C[C@@](O)(c3cc(Cl)cc4[nH]ncc34)C[C@@H]21)c1ccnc(OC(F)(F)F)c1 [Example 161, N-((1R,3r,5S,6r)-3-(6-chloro-1H-indazol-4-yl)-3-hydroxybicyclo[3.1.0]hexan-6-yl)-2-(trifluoromethoxy)isonicotinamide]	≤ 0.5 µM	≤ 0.5 µM
O=C(c1ccccc1)N1C[C@@H]2C[C@@](O)(c3cc(Cl)cc4cn[nH]c34)C[C@@H]2C1 [Example 98, ((3aR,5r,6aS)-5-(5-chloro-1H-indazol-7-yl)-5-hydroxyhexahydrocyclopenta[c]pyrrol-2(1H)-yl)(phenyl)methanone]	> 5 µM	> 5 µM
O=C(Cc1ccc(Cl)cc1)N[C@H]1[C@@H]2C[C@@](O)(c3cc(Cl)cc4[nH]ncc34)C[C@@H]21 [Example 149, N-((1R,3r,5S,6r)-3-(6-chloro-1H-indazol-4-yl)-3-hydroxybicyclo[3.1.0]hexan-6-yl)-2-(4-chlorophenyl)acetamide]	≤ 0.5 µM	≤ 0.5 µM
O=C(c1ccccc1)N1C[C@@H]2C[C@@](O)(c3cc(Cl)cc4[nH]ncc34)C[C@@H]2C1 [Example 36, ((3aR,5r,6aS)-5-(6-chloro-1H-indazol-4-yl)-5-hydroxyhexahydrocyclopenta[c]pyrrol-2(1H)-yl)(phenyl)methanone]	≤ 0.5 µM	> 5 µM
N#Cc1cccc(C(=O)N[C@H]2[C@@H]3C[C@@](O)(c4cc(Cl)cc5[nH]ncc45)C[C@@H]32)c1 [Example 144, N-((1R,3r,5S,6r)-3-(6-chloro-1H-indazol-4-yl)-3-hydroxybicyclo[3.1.0]hexan-6-yl)-3-cyanobenzamide]	≤ 0.5 µM	≤ 0.5 µM

From patent publication US11548868B2, “Heterocyclic compounds, compositions comprising heterocyclic compound, and methods of use thereof” (JS INNOPHARM (SHANGHAI) LTD, priority 2017, dated 2023)
